The subject of series [1] is Echinochloa oryzoides (Ard.) Fritsch. Description: Preemergence weed control under flooded paddy conditions, ECHORC (Watergrass (Calif.)). The class given is in vivo. To be noted: preemergence, flooded paddy, rated three to four weeks after treatment.
In a further series the test system is Cyperus iria. The series can be described thus: Preemergence weed control under flooded paddy conditions, CYPIR (Rice Flatsedge). The class given is in vivo. To be noted: preemergence, flooded paddy, rated three to four weeks after treatment.
For series [2], the system named is Cyperus serotinus, Rottb. The series can be described thus: Preemergence weed control under flooded paddy conditions, CYPSE (Flatsedge). The class given is in vivo. To be noted: preemergence, rated three to four weeks after treatment.
Another series concerns Sagittaria pygmaea, L. The series can be described thus: Preemergence weed control under flooded paddy conditions, SAGPY (Arrowhead (Pygmaea)). It counts as in vivo. To be noted: preemergence, flooded paddy, rated three to four weeks after treatment.
Series [3] relates to Oryza sativa, (L.) Tebonnet. Description: Rice tolerance to post-transplant applications under flooded paddy conditions (Example 187), ORYSAT (Rice, Tebonnet). To be noted: rated three to four weeks after treatment.
Series [4] relates to Monochoria vaginalis, Presl. The series can be described thus: Preemergence weed control under flooded paddy conditions, MOOVA (Monochoria). Conditions: preemergence, flooded paddy, rated three to four weeks after treatment. The class given is in vivo.

On to `Cn1c(C(F)(F)F)cc(=O)n(-c2ccc3snc(COCCCCl)c3c2)c1=O` [Example 224, 3-{3-[(3-Chloropropoxy)methyl]-1,2-benzisothiazol-5-yl}-1-methyl-6-(trifluoromethyl)-2,4(1H,3H)-pyrimidinedione], for which the “ECHORC herbicidal effect rating” value in series [1] (Rate 0.0313 kg/ha) amounted to 6.0; in series [1] (Rate 0.0625 kg/ha) it was 9.0; in series [1] (Rate 0.1250 kg/ha), 9.0; in series [1] (Rate 0.2500 kg/ha), 9.0. Further, the “CYPIR herbicidal effect rating” value in the series with Cyperus iria (Rate 0.0313 kg/ha) was 4.0; in the series on Cyperus iria (Rate 0.0625 kg/ha) it was 7.0; in the series with Cyperus iria (Rate 0.1250 kg/ha) it was 8.0; in the series with Cyperus iria (Rate 0.2500 kg/ha) it was 8.0. In addition, the “CYPSE herbicidal effect rating” value in series [2] (Rate 0.0313 kg/ha) amounted to 0.0; in series [2] (Rate 0.0625 kg/ha), 0.0; in series [2] (Rate 0.1250 kg/ha) it was 2.0; in series [2] (Rate 0.2500 kg/ha), 7.0. Also, the “SAGPY herbicidal effect rating” value in the series with Sagittaria pygmaea, L. (Rate 0.0313 kg/ha) was 0.0; in the series with Sagittaria pygmaea, L. (Rate 0.0625 kg/ha), 2.0; in the series with Sagittaria pygmaea, L. (Rate 0.1250 kg/ha), 4.0; in the series with Sagittaria pygmaea, L. (Rate 0.2500 kg/ha), 8.0. In addition, the “ORYSAT herbicidal effect rating” value in series [3] (Rate 0.0313 kg/ha) turned out to be 6.0; in series [3] (Rate 0.0625 kg/ha), 7.0; in series [3] (Rate 0.1250 kg/ha), 8.0; in series [3] (Rate 0.2500 kg/ha), 9.0. Besides, the “MOOVA herbicidal effect rating” value in series [4] (Rate 0.0313 kg/ha), in series [4] (Rate 0.0625 kg/ha), in series [4] (Rate 0.1250 kg/ha) and in series [4] (Rate 0.2500 kg/ha) was 9.0 in each case.

Turning to `Cn1c(C(F)(F)F)cc(=O)n(-c2ccc3snc(CO)c3c2)c1=O` [Example 225, 3-[3-(Hydroxymethyl)-1,2-benzisothiazol-5-yl]-1-methyl-6-(trifluoromethyl)-2,4(1H,3H)-pyrimidinedione], the “ECHORC herbicidal effect rating” value in series [1] (Rate 0.0313 kg/ha) is listed as 0.0; in series [1] (Rate 0.0625 kg/ha) it was 2.0; in series [1] (Rate 0.1250 kg/ha), 4.0; in series [1] (Rate 0.2500 kg/ha), 7.0. In addition, the “CYPIR herbicidal effect rating” value in the series on Cyperus iria (Rate 0.0313 kg/ha) is 0.0; in the series on Cyperus iria (Rate 0.0625 kg/ha), 0.0; in the series with Cyperus iria (Rate 0.1250 kg/ha), 2.0; in the series on Cyperus iria (Rate 0.2500 kg/ha), 7.0. The “CYPSE herbicidal effect rating” value in series [2] (Rate 0.0313 kg/ha), in series [2] (Rate 0.0625 kg/ha), in series [2] (Rate 0.1250 kg/ha) and in series [2] (Rate 0.2500 kg/ha) was 0.0 in each case. Moreover, the “SAGPY herbicidal effect rating” value worked out at 0.0 in the series with Sagittaria pygmaea, L. (Rate 0.0313 kg/ha); 0.0 with Sagittaria pygmaea, L. (Rate 0.0625 kg/ha); 0.0 in the series on Sagittaria pygmaea, L. (Rate 0.1250 kg/ha); 0.0 with Sagittaria pygmaea, L. (Rate 0.2500 kg/ha). Further, the “ORYSAT herbicidal effect rating” value in series [3] (Rate 0.0313 kg/ha) worked out at 3.0; in series [3] (Rate 0.0625 kg/ha) it was 4.0; in series [3] (Rate 0.1250 kg/ha), 6.0; in series [3] (Rate 0.2500 kg/ha), 7.0. Further, the “MOOVA herbicidal effect rating” value in series [4] (Rate 0.0313 kg/ha) turned out to be 8.0; in series [4] (Rate 0.0625 kg/ha) it was 8.0; in series [4] (Rate 0.1250 kg/ha), 9.0; in series [4] (Rate 0.2500 kg/ha), 9.0.

As to `C=CCOc1nc(C(F)(F)F)cc(=O)n1-c1ccc2snc(-c3cc(C)ccc3OC)c2c1` [Example 245, 2-(Allyloxy)-3-[3-(6-methoxy-m-tolyl)-1,2-benzisothiazol-5-yl]-6-(trifluoromethyl)-4(3H)-pyrimidinone], the “ECHORC herbicidal effect rating” value in series [1] (Rate 0.0313 kg/ha), in series [1] (Rate 0.0625 kg/ha), in series [1] (Rate 0.1250 kg/ha) and in series [1] (Rate 0.2500 kg/ha) was 0.0 each time. Moreover, the “CYPIR herbicidal effect rating” value in the series with Cyperus iria (Rate 0.0313 kg/ha), in the series on Cyperus iria (Rate 0.0625 kg/ha), with Cyperus iria (Rate 0.1250 kg/ha) and with Cyperus iria (Rate 0.2500 kg/ha) was 0.0 in each case. Moreover, the “CYPSE herbicidal effect rating” value in series [2] (Rate 0.0313 kg/ha), in series [2] (Rate 0.0625 kg/ha), in series [2] (Rate 0.1250 kg/ha) and in series [2] (Rate 0.2500 kg/ha) was 0.0 each time. For the same compound, the “SAGPY herbicidal effect rating” value with Sagittaria pygmaea, L. (Rate 0.0313 kg/ha) came out at 0.0; with Sagittaria pygmaea, L. (Rate 0.0625 kg/ha), 0.0; in the series on Sagittaria pygmaea, L. (Rate 0.1250 kg/ha) it was 0.0; with Sagittaria pygmaea, L. (Rate 0.2500 kg/ha) it was 0.0. Besides, the “ORYSAT herbicidal effect rating” value in series [3] (Rate 0.0313 kg/ha), in series [3] (Rate 0.0625 kg/ha), in series [3] (Rate 0.1250 kg/ha) and in series [3] (Rate 0.2500 kg/ha) was 0.0 in each case. Moreover, the “MOOVA herbicidal effect rating” value in series [4] (Rate 0.0313 kg/ha), in series [4] (Rate 0.0625 kg/ha), in series [4] (Rate 0.1250 kg/ha) and in series [4] (Rate 0.2500 kg/ha) was 0.0 in each case.

With `CCOc1nc(C(F)(F)F)cc(=O)n1-c1ccc2snc(-c3cc(C)ccc3OCC(=O)OC)c2c1` [Example 246, Methyl {{2-{5-[2-ethoxy-6-oxo-4-(trifluoromethyl)-1(6H)-pyrimidinyl]-1,2-benzisothiazol-3-yl}-p-tolyl}oxy}acetate], the “ECHORC herbicidal effect rating” value turned out to be 6.0 in series [1] (Rate 0.0313 kg/ha), 7.0 in series [1] (Rate 0.0625 kg/ha), 9.0 in series [1] (Rate 0.1250 kg/ha) and 9.0 in series [1] (Rate 0.2500 kg/ha). Moreover, the “CYPIR herbicidal effect rating” value is on record as 0.0 in the series on Cyperus iria (Rate 0.0313 kg/ha), 2.0 in the series with Cyperus iria (Rate 0.0625 kg/ha), 4.0 with Cyperus iria (Rate 0.1250 kg/ha) and 4.0 with Cyperus iria (Rate 0.2500 kg/ha). Besides, the “CYPSE herbicidal effect rating” value in series [2] (Rate 0.0313 kg/ha), in series [2] (Rate 0.0625 kg/ha) and in series [2] (Rate 0.1250 kg/ha) was 0.0 throughout. For the same compound, the “SAGPY herbicidal effect rating” value in the series on Sagittaria pygmaea, L. (Rate 0.0313 kg/ha) is recorded as 0.0; with Sagittaria pygmaea, L. (Rate 0.0625 kg/ha) it was 0.0; in the series on Sagittaria pygmaea, L. (Rate 0.1250 kg/ha), 2.0; with Sagittaria pygmaea, L. (Rate 0.2500 kg/ha), 2.0. Besides, the “ORYSAT herbicidal effect rating” value in series [3] (Rate 0.0313 kg/ha) was 0.0; in series [3] (Rate 0.0625 kg/ha), 1.0; in series [3] (Rate 0.1250 kg/ha) it was 2.0; in series [3] (Rate 0.2500 kg/ha), 2.0. In addition, the “MOOVA herbicidal effect rating” value in series [4] (Rate 0.0313 kg/ha), in series [4] (Rate 0.0625 kg/ha), in series [4] (Rate 0.1250 kg/ha) and in series [4] (Rate 0.2500 kg/ha) was 9.0 each time.

(Values after EP0908457B1, “3-(1,2-benzisothiazol- and isoxazol-5-Y1)-2,4(1H,3H)-pyrimidinedione or thione and 3-(1,2-benzisothiazol- and isoxazol-5-y1)-4(3H)-pyrimidinone or thione herbicidal agents” (BASF AKTIENGESELLSCHAFT, priority 1997, dated 1999).)
